Several values for one entry are separate records, joined by “and”; a condition that tells them apart may be missing. Identical values can stand only once.
Test system: patients with prior myocardial infarction (CARE study)
Test: CARE aligned analysis (prospective and case/control design, white males): association of genotypes with pravastatin efficacy (Tables 13, 15)
Format: in vivo, human
Details: for Pravastatin Patients n/total: WM
Description: The data presented in Table 8 based on an association of genotypes with pravastatin efficacy of the CARE samples were further analyzed and presented in Table 13. The further analysis was performed to align the data obtained from the analysis of the CARE samples, which was a prospective study, to the analysis of the WOSCOP samples, which was a case/control study. Table 13 also presents an analysis of the association of genotypes with pravastatin efficacy in the WOSCOPs samples. Relative to the analysis performed on the data presented in Table 8, there are two significant differences to determine if the SNP influenced pravastatin efficacy. Data obtained from the CARE samples were separated by study design into two groups, those in the prospective study design group and those in the case/control study design group. The original care study contained 16 protocol defined cardiovascular disease defined endpoints and 150 other phenotypes. […] The control groups used to compare the data were also divided into two groups, the “all possible” control group and the “cleaner” control group. […] Because the participants in the WOSCOPs trial were all white males, only data obtained from white males in the CARE study were analysed. Data from the “all possible” and “cleaner” controls were compared to data obtained from the cases in the prospective study design while only data from “cleaner” controls were compared to cases in the case/control study design. The data from the case/control cohorts were analysed using conditional logistic regression (as opposed to logistic regression used for the original anaylsis).
The anaylsis was refined as described for both Tables 13 and 14.

[1] = PRKCQ hCV15954277, CARE, Case/Control, F MI/SD/NF MI
[2] = PRKCQ hCV15954277, CARE, Prospective, F MI/SD/NF MI
[3] = SERPINA5 hCV9596963, CARE Case/Control, F MI/SD/NF MI
[4] = SN hCV25623265, CARE Case/Control, F MI/SD/NF MI
[5] = SN hCV25623265, CARE Prospective, F MI/SD/NF MI
[6] = TAP1 hCV549926, CARE Case/Control, F MI/SD/NF MI
[7] = TAP1 hCV549926, CARE Prospective, F MI/SD/NF MI
[8] = TIMP2 hCV25629888, CARE Case/Control, F MI/SD/NF MI
[9] = TNF hCV7514879, CARE Case/Control, F MI/SD/NF MI
[10] = TNF hCV7514879, CARE Prospective, F MI/SD/NF MI
[11] = VTN hCV2536595, CARE Case/Control, F MI/SD/NF MI
[12] = VTN hCV2536595, CARE Prospective, F MI/SD/NF MI

For `CC[C@H](C)C(=O)O[C@H]1C[C@H](O)C=C2C=C[C@H](C)[C@H](CC[C@@H](O)C[C@@H](O)CC(=O)O)[C@H]21` [pravastatin], the “n/total (%) cases, Pravastatin Patients, 2 Rare Alleles” value (PON1 hCV2548962, 2 rare alleles, CARE Prospective, Total CHD Events, All Possible controls, White Males) was 18/107 (16.8%), the “Pravastatin Patients n/total” value (PPOX hCV25922816, 0 Rare Alleles, CARE Prospective, F&NF MI, Cleaner controls) was 116/721 and the “Pravastatin Patients n/total” value (PPOX hCV25922816, 1 Rare Allele, CARE Case/Control, F&NF MI, All Possible controls) was 10/164. The “Pravastatin Patients n/total” value (PPOX hCV25922816, 1 Rare Allele, CARE Prospective, F&NF MI, All Possible controls) was 10/169, the “Pravastatin Patients n/total” value (PPOX hCV25922816, 1 Rare Allele, CARE Prospective, F&NF MI, Cleaner controls) was 10/113 and the “2 Rare Alleles (%), Pravastatin Patients” value (PPOX hCV25922816, CARE Case/Control, F&NF MI) was “(16.7%)”. For the same compound, the “2 Rare Alleles (%), Pravastatin Patients” value (PPOX hCV25922816, CARE Prospective, F&NF MI) was “(16.7%)”, the “2 rare alleles n/total (%), pravastatin patients” value [1] was “(11.2%)” and the “Pravastatin vs placebo odds ratio, 0 rare alleles” value [1] was 0.58. The “Pravastatin vs placebo odds ratio, 1 rare allele” value [1] was 1.04, the “Pravastatin vs placebo odds ratio, 2 rare alleles” value [1] was 3.15 and the “Pravastatin vs placebo odds ratio, 0 rare alleles” value [2] was 0.57 and 0.56. For the same compound, the “Pravastatin vs placebo odds ratio, 1 rare allele” value [2] was 1.08 and 0.85, the “Pravastatin vs placebo odds ratio, 2 rare alleles” value [2] was 3.38 and 2.80 and the “2 Rare Alleles (%), Pravastatin Patients” value (SELL hCV16172571, CARE Case/Control, F&NF MI) was “(14.3%)”. The “2 Rare Alleles (%), Pravastatin Patients” value (SELL hCV16172571, CARE Prospective, F&NF MI) was “(12.9%)”, the “2 Rare Alleles (%), Pravastatin Patients” value (SELL hCV25474627, CARE Case/Control, F&NF MI) was “(14.8%)” and the “2 Rare Alleles (%), Pravastatin Patients” value (SELL hCV25474627, CARE Prospective, F&NF MI) was “(13.3%)”. The “2 Rare Alleles (%), Pravastatin Patients” value (SERPINA1 hCV25640504, CARE Case/Control, F&NF MI) was “(8.6%)”, the “2 Rare Alleles (%), Pravastatin Patients” value (SERPINA1 hCV25640504, CARE Prospective, F&NF MI) was “(8.4%)” and the “2 Rare Alleles (%), Pravastatin Patients” value [3] was “(15.1%)”. For the same compound, the “2 Rare Alleles n/total, Pravastatin Patients” value [3] was 21/139, the “Pravastatin vs placebo odds ratio, 0 rare alleles” value [3] was 0.89 and the “Pravastatin vs placebo odds ratio, 1 rare allele” value [3] was 0.57. The “Pravastatin vs placebo odds ratio, 2 rare alleles” value [3] was 1.72, the “2 Rare Alleles (%), Pravastatin Patients” value (SERPINI2 hCV370782, CARE Case/Control, F&NF MI) was “(16.2%)” and the “2 Rare Alleles (%), Pravastatin Patients” value (SERPINI2 hCV370782, CARE Prospective, F&NF MI) was “(15.8%)”. For the same compound, the “2 Rare Alleles (%), Pravastatin Patients” value [4] was “(7.5%)”, the “2 Rare Alleles n/total, Pravastatin Patients” value [4] was 13/173 and the “Pravastatin vs placebo odds ratio, 0 rare alleles” value [4] was 0.71. The “Pravastatin vs placebo odds ratio, 1 rare allele” value [4] was 1.02, the “Pravastatin vs placebo odds ratio, 2 rare alleles” value [4] was 0.30 and the “2 Rare Alleles (%), Pravastatin Patients” value [5] was “(7.5%)”. The “2 Rare Alleles n/total, Pravastatin Patients” value [5] was 13/174, the “Pravastatin vs placebo odds ratio, 0 rare alleles” value [5] was 0.72 and the “Pravastatin vs placebo odds ratio, 1 rare allele” value [5] was 0.98. For the same compound, the “Pravastatin vs placebo odds ratio, 2 rare alleles” value [5] was 0.31, the “2 Rare Alleles n/total, Pravastatin Patients” value [6] was 1/36 and 1/25 and the “Pravastatin vs placebo odds ratio, 0 rare alleles” value [6] was 0.98 and 0.89. For the same compound, the “Pravastatin vs placebo odds ratio, 1 rare allele” value [6] was 0.61 and 0.56, the “Pravastatin vs placebo odds ratio, 2 rare alleles” value [6] was 0.08 and the “2 Rare Alleles n/total, Pravastatin Patients” value [7] was 1/36 and 1/25. For the same compound, the “Pravastatin vs placebo odds ratio, 0 rare alleles” value [7] was 1.00 and 0.88, the “Pravastatin vs placebo odds ratio, 1 rare allele” value [7] was 0.60 and 0.55 and the “Pravastatin vs placebo odds ratio, 2 rare alleles” value [7] was 0.09 and 0.08. For the same compound, the “2 Rare Alleles (%), Pravastatin Patients” value [8] was “(29.2%)”, the “2 Rare Alleles n/total, Pravastatin Patients” value [8] was 7/24 and the “Pravastatin vs placebo odds ratio, 0 rare alleles” value [8] was 0.76. The “Pravastatin vs placebo odds ratio, 1 rare allele” value [8] was 0.56, the “Pravastatin vs placebo odds ratio, 2 rare alleles” value [8] was 6.81 and the “2 Rare Alleles (%), Pravastatin Patients” value [9] was “(8.8%)”. The “2 Rare Alleles n/total, Pravastatin Patients” value [9] was 3/34, the “Pravastatin vs placebo odds ratio, 0 rare alleles” value [9] was 0.87 and the “Pravastatin vs placebo odds ratio, 1 rare allele” value [9] was 0.52. The “Pravastatin vs placebo odds ratio, 2 rare alleles” value [9] was 0.14, the “2 Rare Alleles (%), Pravastatin Patients” value (TNF hCV7514879, CARE Case/Control, F&NF MI) was “(8.8%)” and the “2 Rare Alleles (%), Pravastatin Patients” value [10] was “(8.6%)”. For the same compound, the “2 Rare Alleles n/total, Pravastatin Patients” value [10] was 3/35, the “Pravastatin vs placebo odds ratio, 0 rare alleles” value [10] was 0.88 and the “Pravastatin vs placebo odds ratio, 1 rare allele” value [10] was 0.50. The “Pravastatin vs placebo odds ratio, 2 rare alleles” value [10] was 0.12, the “2 Rare Alleles (%), Pravastatin Patients” value (TNF hCV7514879, CARE Prospective, F&NF MI) was “(8.6%)” and the “2 Rare Alleles n/total, Pravastatin Patients” value [11] was 21/260 and 21/168. For the same compound, the “Pravastatin vs placebo odds ratio, 0 rare alleles” value [11] was 1.51 and 1.37, the “Pravastatin vs placebo odds ratio, 1 rare allele” value [11] was 0.63 and 0.56 and the “Pravastatin vs placebo odds ratio, 2 rare alleles” value [11] was 0.66 and 0.64. The “2 Rare Alleles (%), Pravastatin Patients” value [12] was “(7.9%)”, the “2 Rare Alleles n/total, Pravastatin Patients” value [12] was 21/266 and 21/174 and the “Pravastatin vs placebo odds ratio, 0 rare alleles” value [12] was 1.54 and 1.31. The “Pravastatin vs placebo odds ratio, 1 rare allele” value [12] was 0.65 and 0.58 and the “Pravastatin vs placebo odds ratio, 2 rare alleles” value [12] was 0.63 and 0.61.

— patent US9932637B2, “Genetic polymorphisms associated with cardiovascular disorders and drug response, methods of detection and uses thereof” (CELERA CORPORATION, priority 2003, dated 2018)
